What was measured:
IKKε = IKKε (Homo sapiens (Human), UniProt Q14164); test: IKKε TR-FRET enzymatic assay; format: biochemical; conditions: TR-FRET, 2×Km ATP; geometric mean of minimum four determinations; read-out: IKKe IC50
hJAK2 = hJAK2 (Homo sapiens (Human), UniProt O60674); test: hJAK2 LANCE TR-FRET enzymatic assay; format: biochemical; conditions: read-out: JAK2 IC50
TBK1 = TBK1 (Homo sapiens (Human), UniProt Q9UHD2); test: TBK1 TR-FRET enzymatic assay;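 further: phosphorylation of a biotinylated Ser/Thr peptide by purified full-length recombinant TBK1, read by TR-FRET after 240 min at 25 °C, IC50 is the geometric mean of at least four runs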
Chain of TBK1 (Q9UHD2 whole entry): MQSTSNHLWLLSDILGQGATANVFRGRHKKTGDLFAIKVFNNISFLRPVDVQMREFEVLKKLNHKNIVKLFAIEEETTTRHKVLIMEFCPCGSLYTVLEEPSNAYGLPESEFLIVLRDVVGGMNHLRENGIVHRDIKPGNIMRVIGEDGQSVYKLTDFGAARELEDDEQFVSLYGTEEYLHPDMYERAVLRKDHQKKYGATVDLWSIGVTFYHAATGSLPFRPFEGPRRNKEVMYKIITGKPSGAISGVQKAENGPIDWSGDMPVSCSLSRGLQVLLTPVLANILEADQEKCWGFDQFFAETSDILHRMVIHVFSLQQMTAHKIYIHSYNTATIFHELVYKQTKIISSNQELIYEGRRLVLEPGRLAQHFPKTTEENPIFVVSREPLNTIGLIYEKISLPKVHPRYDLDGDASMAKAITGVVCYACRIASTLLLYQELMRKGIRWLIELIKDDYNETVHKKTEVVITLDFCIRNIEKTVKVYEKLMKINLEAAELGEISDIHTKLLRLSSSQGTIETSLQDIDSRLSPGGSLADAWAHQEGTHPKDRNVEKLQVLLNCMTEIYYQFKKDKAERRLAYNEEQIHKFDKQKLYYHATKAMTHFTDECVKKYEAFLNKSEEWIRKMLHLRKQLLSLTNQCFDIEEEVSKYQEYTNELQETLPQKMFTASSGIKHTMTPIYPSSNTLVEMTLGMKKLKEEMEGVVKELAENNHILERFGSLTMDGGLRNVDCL

Chain of hJAK2 (O60674 whole entry): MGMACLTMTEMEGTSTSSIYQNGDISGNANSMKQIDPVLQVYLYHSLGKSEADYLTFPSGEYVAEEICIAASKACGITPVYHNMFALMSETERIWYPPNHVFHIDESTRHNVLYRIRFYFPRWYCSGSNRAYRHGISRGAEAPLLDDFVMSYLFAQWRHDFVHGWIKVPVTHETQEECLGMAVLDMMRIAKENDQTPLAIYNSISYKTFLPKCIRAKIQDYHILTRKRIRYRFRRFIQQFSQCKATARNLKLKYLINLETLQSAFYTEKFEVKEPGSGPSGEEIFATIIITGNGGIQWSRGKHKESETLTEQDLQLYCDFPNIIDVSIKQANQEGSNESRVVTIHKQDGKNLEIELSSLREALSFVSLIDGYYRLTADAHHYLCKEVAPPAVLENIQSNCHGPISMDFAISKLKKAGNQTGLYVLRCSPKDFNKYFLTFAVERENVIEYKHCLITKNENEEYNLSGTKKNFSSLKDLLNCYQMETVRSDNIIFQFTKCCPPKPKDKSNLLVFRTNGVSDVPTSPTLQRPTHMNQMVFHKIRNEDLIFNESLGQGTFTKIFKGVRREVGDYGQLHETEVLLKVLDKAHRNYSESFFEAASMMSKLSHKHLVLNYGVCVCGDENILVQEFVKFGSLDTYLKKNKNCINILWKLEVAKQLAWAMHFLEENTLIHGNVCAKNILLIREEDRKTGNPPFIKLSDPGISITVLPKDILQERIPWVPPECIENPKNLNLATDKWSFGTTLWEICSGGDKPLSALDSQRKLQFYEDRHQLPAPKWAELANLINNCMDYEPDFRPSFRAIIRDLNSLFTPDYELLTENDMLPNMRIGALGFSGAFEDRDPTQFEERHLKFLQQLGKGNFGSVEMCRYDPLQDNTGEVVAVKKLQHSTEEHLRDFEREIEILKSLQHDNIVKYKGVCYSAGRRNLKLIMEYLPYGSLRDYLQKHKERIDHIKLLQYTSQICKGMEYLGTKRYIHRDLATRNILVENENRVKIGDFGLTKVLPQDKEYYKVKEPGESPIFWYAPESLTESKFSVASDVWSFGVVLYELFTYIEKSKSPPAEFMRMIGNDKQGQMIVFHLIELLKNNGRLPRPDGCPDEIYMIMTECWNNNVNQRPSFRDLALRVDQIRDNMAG
Chain of IKKε (Q14164 whole entry): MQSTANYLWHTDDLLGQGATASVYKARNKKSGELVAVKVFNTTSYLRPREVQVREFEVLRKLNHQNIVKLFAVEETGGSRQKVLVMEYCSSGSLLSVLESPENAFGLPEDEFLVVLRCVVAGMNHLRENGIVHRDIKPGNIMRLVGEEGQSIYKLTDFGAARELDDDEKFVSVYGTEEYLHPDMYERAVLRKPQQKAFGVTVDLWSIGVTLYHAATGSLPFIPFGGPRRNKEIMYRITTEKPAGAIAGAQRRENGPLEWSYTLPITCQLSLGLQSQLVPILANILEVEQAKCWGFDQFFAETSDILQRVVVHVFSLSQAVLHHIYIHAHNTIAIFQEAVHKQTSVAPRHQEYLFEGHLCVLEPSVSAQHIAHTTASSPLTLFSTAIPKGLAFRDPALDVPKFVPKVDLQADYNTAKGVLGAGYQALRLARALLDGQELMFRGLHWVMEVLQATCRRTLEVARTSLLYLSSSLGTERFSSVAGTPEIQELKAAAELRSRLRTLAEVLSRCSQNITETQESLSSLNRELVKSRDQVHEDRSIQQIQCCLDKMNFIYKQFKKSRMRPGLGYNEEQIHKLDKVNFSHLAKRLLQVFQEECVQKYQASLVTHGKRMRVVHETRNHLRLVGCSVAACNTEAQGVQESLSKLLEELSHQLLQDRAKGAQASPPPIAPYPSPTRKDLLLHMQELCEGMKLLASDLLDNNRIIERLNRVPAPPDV

C[C@H](O)C(=O)N1C[C@@H](F)[C@@H](Oc2ccc(-c3ncnc(Nc4ccc(N5CCN(C6COC6)CC5)cc4)n3)cc2C#N)C[C@@H]1C [Example 415, 2-(((2S,4S,5R)-5-fluoro-1-((S)-2-hydroxypropanoyl)-2-methylpiperidin-4-yl)oxy)-5-(4-((4-(4-(oxetan-3-yl)piperazin-1-yl)phenyl)amino)-1,3,5-triazin-2-yl)benzonitrile]
IC50 (IKKε): 142 nM
IC50 (hJAK2): ≥ 1000 nM
IC50 (TBK1): 58 nM

N#CCCC(=O)N1CC[C@H](Oc2ccc(-c3ncnc(Nc4ccc(N5CCN(C6COC6)CC5)cc4)n3)cc2C#N)[C@H](F)C1 [Example 417, 2-(((3R,4S)-1-(3-cyanopropanoyl)-3-fluoropiperidin-4-yl)oxy)-5-(4-((4-(4-(oxetan-3-yl)piperazin-1-yl)phenyl)amino)-1,3,5-triazin-2-yl)benzonitrile]
IC50 (IKKε): 79 nM
IC50 (hJAK2): 694 nM
IC50 (TBK1): 17 nM

Cc1nnc(C(=O)N2CC[C@H](Oc3ccc(-c4ncnc(Nc5cnn(C(C)(C)C)c5)n4)cc3C#N)[C@H](F)C2)[nH]1 [Example 418, 5-(4-((1-(tert-butyl)-1H-pyrazol-4-yl)amino)-1,3,5-triazin-2-yl)-2-(((3R,4S)-3-fluoro-1-(5-methyl-4H-1,2,4-triazole-3-carbonyl)piperidin-4-yl)oxy)benzonitrile]
IC50 (IKKε): 2 nM
IC50 (hJAK2): 212 nM
IC50 (TBK1): 4 nM

CC(C)(C)n1cc(Nc2ncnc(-c3ccc(O[C@H]4CCN(C(=O)[C@@H](O)CO)C[C@H]4F)c(C#N)c3)n2)cn1 [Example 419, 5-(4-((1-(tert-butyl)-1H-pyrazol-4-yl)amino)-1,3,5-triazin-2-yl)-2-(((3R,4S)-1-((S)-2,3-dihydroxypropanoyl)-3-fluoropiperidin-4-yl)oxy)benzonitrile]
IC50 (IKKε): 2 nM
IC50 (hJAK2): 228 nM
IC50 (TBK1): 2 nM

CC(C)(C)n1cc(Nc2ncnc(-c3ccc(O[C@H]4CCN(C(=O)CO)C[C@H]4F)c(C#N)c3)n2)cn1 [Example 420, 5-(4-((1-(tert-butyl)-1H-pyrazol-4-yl)amino)-1,3,5-triazin-2-yl)-2-(((3R,4S)-3-fluoro-1-(2-hydroxyacetyl)piperidin-4-yl)oxy)benzonitrile]
IC50 (IKKε): 2 nM
IC50 (hJAK2): 190 nM
IC50 (TBK1): 2 nM

CN1CC(Oc2ccc(-c3ncnc(Nc4ccc(N5CCN(C6COC6)CC5)cc4)n3)cc2C#N)CNC1=O (stereo not drawn) [Example 421, 2-((1-methyl-2-oxohexahydropyrimidin-5-yl)oxy)-5-(4-((4-(4-(oxetan-3-yl)piperazin-1-yl)phenyl)amino)-1,3,5-triazin-2-yl)benzonitrile]
IC50 (IKKε): 156 nM
IC50 (hJAK2): 60 nM
IC50 (TBK1): 80 nM

CN1CC(Oc2ccc(-c3ncnc(Nc4ccc(N5CCN(C6COC6)CC5)cc4)n3)cc2C#N)CCC1=O (stereo not drawn) [Example 422, 2-((1-methyl-6-oxopiperidin-3-yl)oxy)-5-(4-((4-(4-(oxetan-3-yl)piperazin-1-yl)phenyl)amino)-1,3,5-triazin-2-yl)benzonitrile]
IC50 (IKKε): 156 nM
IC50 (hJAK2): 849 nM
IC50 (TBK1): 65 nM

N#Cc1cc(-c2ncnc(Nc3ccc(N4CCN(C5COC5)CC4)cc3)n2)ccc1O[C@H]1CCN(C(=O)N2CC[C@@H](F)C2)C[C@H]1F [Example 423, 2-(((3R,4S)-3-fluoro-1-((R)-3-fluoropyrrolidine-1-carbonyl)piperidin-4-yl)oxy)-5-(4-((4-(4-(oxetan-3-yl)piperazin-1-yl)phenyl)amino)-1,3,5-triazin-2-yl)benzonitrile]
IC50 (IKKε): 55 nM
IC50 (hJAK2): 681 nM
IC50 (TBK1): 16 nM

N#Cc1cc(-c2ncnc(Nc3ccc(N4CCN(C5COC5)CC4)cc3)n2)ccc1O[C@H]1CCN(C(=O)N2CCCC2)C[C@H]1F [Example 424, 2-(((3R,4S)-3-fluoro-1-(pyrrolidine-1-carbonyl)piperidin-4-yl)oxy)-5-(4-((4-(4-(oxetan-3-yl)piperazin-1-yl)phenyl)amino)-1,3,5-triazin-2-yl)benzonitrile]
IC50 (IKKε): 12 nM
IC50 (hJAK2): ≥ 1000 nM
IC50 (TBK1): 6 nM

N#Cc1cc(-c2ncnc(Nc3ccc(N4CCN(C5COC5)CC4)cc3)n2)ccc1O[C@H]1CCN(C(=O)N2CC[C@@H](O)C2)C[C@H]1F [Example 425, 2-(((3R,4S)-3-fluoro-1-((R)-3-hydroxypyrrolidine-1-carbonyl)piperidin-4-yl)oxy)-5-(4-((4-(4-(oxetan-3-yl)piperazin-1-yl)phenyl)amino)-1,3,5-triazin-2-yl)benzonitrile]
IC50 (IKKε): 21 nM
IC50 (hJAK2): 590 nM
IC50 (TBK1): 7 nM

N#Cc1cc(-c2ncnc(Nc3ccc(N4CCN(C5COC5)CC4)cc3)n2)ccc1O[C@H]1CCN(C(=O)N2CC[C@H](O)C2)C[C@H]1F [Example 426, 2-(((3R,4S)-3-fluoro-1-((S)-3-hydroxypyrrolidine-1-carbonyl)piperidin-4-yl)oxy)-5-(4-((4-(4-(oxetan-3-yl)piperazin-1-yl)phenyl)amino)-1,3,5-triazin-2-yl)benzonitrile]
IC50 (IKKε): 201 nM
IC50 (hJAK2): ≥ 1000 nM
IC50 (TBK1): 79 nM

COCCNC(=O)N1CC[C@H](Oc2ccc(-c3ncnc(Nc4ccc(N5CCN(C6COC6)CC5)cc4)n3)cc2C#N)[C@H](F)C1 [Example 427, (3R,4S)-4-(2-cyano-4-(4-((4-(4-(oxetan-3-yl)piperazin-1-yl)phenyl)amino)-1,3,5-triazin-2-yl)phenoxy)-3-fluoro-N-(2-methoxyethyl)piperidine-1-carboxamide]
IC50 (IKKε): 74 nM
IC50 (hJAK2): ≥ 1000 nM
IC50 (TBK1): 31 nM

CN(CCO)C(=O)N1CC[C@H](Oc2ccc(-c3ncnc(Nc4ccc(N5CCN(C6COC6)CC5)cc4)n3)cc2C#N)[C@H](F)C1 [Example 428, (3R,4S)-4-(2-cyano-4-(4-((4-(4-(oxetan-3-yl)piperazin-1-yl)phenyl)amino)-1,3,5-triazin-2-yl)phenoxy)-3-fluoro-N-(2-hydroxyethyl)-N-methylpiperidine-1-carboxamide]
IC50 (IKKε): 64 nM
IC50 (hJAK2): ≥ 1000 nM
IC50 (TBK1): 41 nM

N#Cc1cc(-c2ncnc(Nc3ccc(N4CCN(C5COC5)CC4)cc3)n2)ccc1O[C@H]1CCN(C(=O)NCCO)C[C@H]1F [Example 429, (3R,4S)-4-(2-cyano-4-(4-((4-(4-(oxetan-3-yl)piperazin-1-yl)phenyl)amino)-1,3,5-triazin-2-yl)phenoxy)-3-fluoro-N-(2-hydroxyethyl)piperidine-1-carboxamide]
IC50 (IKKε): 33 nM
IC50 (hJAK2): 601 nM
IC50 (TBK1): 12 nM

C[C@H](O)C(=O)N1C[C@@H](C)[C@H](Oc2ccc(-c3ncnc(Nc4ccc(N5CCN(C6COC6)CC5)cc4)n3)cc2C#N)C(F)(F)C1 [Example 431, trans-2-((3,3-difluoro-1-((S)-2-hydroxypropanoyl)-5-methylpiperidin-4-yl)oxy)-5-(4-((4-(4-(oxetan-3-yl)piperazin-1-yl)phenyl)amino)-1,3,5-triazin-2-yl)benzonitrile]
IC50 (IKKε): 17 nM
IC50 (hJAK2): 496 nM
IC50 (TBK1): 11 nM

C[C@@H](N)C(=O)N1CC[C@H](Oc2ccc(-c3ncnc(Nc4ccc(N5CCN(C6COC6)CC5)cc4)n3)cc2C#N)[C@H](F)C1 [Example 433, 2-(((3R,4S)-1-((R)-2-aminopropanoyl)-3-fluoropiperidin-4-yl)oxy)-5-(4-((4-(4-(oxetan-3-yl)piperazin-1-yl)phenyl)amino)-1,3,5-triazin-2-yl)benzonitrile]
IC50 (IKKε): 283 nM
IC50 (hJAK2): ≥ 1000 nM
IC50 (TBK1): 76 nM

N#Cc1cc(-c2ncnc(Nc3ccc(N4CCN(C5COC5)CC4)cc3)n2)ccc1O[C@@H]1CCN(C(=O)c2nc(=O)[nH][nH]2)C1 [Example 435, (R)-5-(4-((4-(4-(oxetan-3-yl)piperazin-1-yl)phenyl)amino)-1,3,5-triazin-2-yl)-2-((1-(5-oxo-2,5-dihydro-1H-1,2,4-triazole-3-carbonyl)pyrrolidin-3-yl)oxy)benzonitrile]
IC50 (IKKε): 292 nM
IC50 (hJAK2): ≥ 1000 nM
IC50 (TBK1): 411 nM

CC1(C)CNC[C@@H](F)[C@H]1Oc1ccc(-c2ncnc(Nc3ccc(N4CCN(C5COC5)CC4)cc3)n2)cc1C#N [Example 440, 2-(((4S,5R)-5-fluoro-3,3-dimethylpiperidin-4-yl)oxy)-5-(4-((4-(4-(oxetan-3-yl)piperazin-1-yl)phenyl)amino)-1,3,5-triazin-2-yl)benzonitrile]
IC50 (IKKε): 51 nM
IC50 (hJAK2): 110 nM
IC50 (TBK1): 22 nM

Cn1cc(C(=O)N2C[C@@H](F)[C@@H](Oc3ccc(-c4ncnc(Nc5ccc(N6CCN(C7COC7)CC6)cc5)n4)cc3C#N)C(C)(C)C2)nn1 [Example 441, 2-(((4S,5R)-5-fluoro-3,3-dimethyl-1-(1-methyl-1H-1,2,3-triazole-4-carbonyl)piperidin-4-yl)oxy)-5-(4-((4-(4-(oxetan-3-yl)piperazin-1-yl)phenyl)amino)-1,3,5-triazin-2-yl)benzonitrile]
IC50 (IKKε): 2 nM
IC50 (hJAK2): 88 nM
IC50 (TBK1): 3 nM

CC1(C)CN(C(=O)c2ccn[nH]2)C[C@@H](F)[C@H]1Oc1ccc(-c2ncnc(Nc3ccc(N4CCN(C5COC5)CC4)cc3)n2)cc1C#N [Example 442, 2-(((4S,5R)-5-fluoro-3,3-dimethyl-1-(1H-pyrazole-5-carbonyl)piperidin-4-yl)oxy)-5-(4-((4-(4-(oxetan-3-yl)piperazin-1-yl)phenyl)amino)-1,3,5-triazin-2-yl)benzonitrile]
IC50 (IKKε): 3 nM
IC50 (hJAK2): 125 nM
IC50 (TBK1): 3 nM

CC1(C)CN(C(=O)CCO)C[C@@H](F)[C@H]1Oc1ccc(-c2ncnc(Nc3ccc(N4CCN(C5COC5)CC4)cc3)n2)cc1C#N [Example 443, 2-(((4S,5R)-5-fluoro-1-(3-hydroxypropanoyl)-3,3-dimethylpiperidin-4-yl)oxy)-5-(4-((4-(4-(oxetan-3-yl)piperazin-1-yl)phenyl)amino)-1,3,5-triazin-2-yl)benzonitrile]
IC50 (IKKε): 6 nM
IC50 (hJAK2): 102 nM
IC50 (TBK1): 3 nM

CC1(C)CN(C(=O)[C@@H]2CCC(=O)N2)C[C@H](F)[C@@H]1Oc1ccc(-c2ncnc(Nc3ccc(N4CCN(C5COC5)CC4)cc3)n2)cc1C#N [Example 444]
IC50 (IKKε): 88 nM
IC50 (hJAK2): 476 nM
IC50 (TBK1): 27 nM

Reference: patent US10040781B2, “Tank-binding kinase inhibitor compounds” (Gilead Sciences, Inc., priority 2014, dated 2018)
